Where two headings read alike, the source gives them in different places.
How the values were obtained:
[1] = test system: H929 human cancer cell lines; assay: Cellular viability / proliferation (Cell TiterGlo, 72 h); type: cell-based
In short: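 Compounds were added as 2-fold serial dilutions from 50 μM (final DMSO <1%) to H929 cells seeded 1,000 per well in 10% FBS medium one day earlier.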

Mcl-1 = Mcl-1 (Homo sapiens (Human), UniProt Q07820); assay: Fluorescence polarization anisotropy (FPA) competition assay, FITC-Bak or FITC-Bim BH3 peptide; type: binding; details: read-out: Ki for Inhibition of Mcl-1 by FPA assay
[2] = Homo sapiens, NCI-H929, 72 h, read-out: GI50 on cellular proliferation of H929 human cancer cell lines, H929 cells, 72 h, Cell TiterGlo, 10% FBS

Chain of Mcl-1 (Q07820 172-327): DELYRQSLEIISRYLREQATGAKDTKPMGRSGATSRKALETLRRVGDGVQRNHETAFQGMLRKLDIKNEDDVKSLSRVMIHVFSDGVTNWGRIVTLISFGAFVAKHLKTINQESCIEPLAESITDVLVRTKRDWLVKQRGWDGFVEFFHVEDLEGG

Compound	GI50 [1, 2] [nM]	Ki (Mcl-1) [nM]	GI50 ([1]; read-out: GI50 on cellular proliferation of H929 human cancer cell lines, H929 cells, 72 h, Cell TiterGlo, 10% FBS) [nM]
Cc1noc(-c2ccc3c(c2)c(N2C[C@@H](C)n4c(c(CCCOc5cc(C)c(Cl)c(C)c5)c5ccc(Cl)c(-c6c(C)ncnc6C)c54)C2=O)cn3C)n1 [Example 395, (R)-7-Chloro-10-(3-(4-chloro-3,5-dimethylphenoxy)propyl)-6-(4,6-dimethylpyrimidin-5-yl)-4-methyl-2-(1-methyl-5-(3-methyl-1,2,4-oxadiazol-5-yl)-1H-indol-3-yl)-3,4-dihydropyrazino[1,2-a]indol-1(2H)-one]	860	2.2	
Cc1cc(N2CCCn3c(c(CCCOc4cc(C)c(Cl)c(C)c4)c4ccc(Cl)c(-c5c(C)ncnc5C)c43)C2=O)c2c(c1)cc(C(=O)O)n2C [Example 399, 7-(8-Chloro-11-(3-(4-chloro-3,5-dimethylphenoxy)propyl)-7-(4,6-dimethylpyrimidin-5-yl)-1-oxo-4,5-dihydro-1H-[1,4]diazepino[1,2-a]indol-2(3H)-yl)-1,5-dimethyl-1H-indole-2-carboxylic acid]	210	2.4	
COc1ccc(N2C[C@@H](C)n3c(c(CCCOc4cc(C)c(Cl)c(C)c4)c4ccc(Cl)c(-c5c(C)nn(C)c5C)c43)C2=O)c2c1c(C(=O)O)cn2C [Example 445, (R)-7-(7-Chloro-10-(3-(4-chloro-3,5-dimethylphenoxy)propyl)-4-methyl-1-oxo-6-(1,3,5-trimethyl-1H-pyrazol-4-yl)-3,4-dihydropyrazino[1,2-a]indol-2(1H)-yl)-4-methoxy-1-methyl-1H-indole-3-carboxylic acid]	820	2.2	
Cc1nc(-c2ccc3c(c2)c(N2C[C@@H](C)n4c(c(CCCOc5cc(C)c(Cl)c(C)c5)c5ccc(Cl)c(-c6c(C)nn(C)c6C)c54)C2=O)cn3C)no1 [Example 429, (R)-7-Chloro-10-(3-(4-chloro-3,5-dimethylphenoxy)propyl)-4-methyl-2-(1-methyl-5-(5-methyl-1,2,4-oxadiazol-3-yl)-1H-indol-3-yl)-6-(1,3,5-trimethyl-1H-pyrazol-4-yl)-3,4-dihydropyrazino[1,2-a]indol-1(2H)-one]	970	1.8	
Cc1nnc(-c2ccc3c(c2)c(N2C[C@@H](C)n4c(c(CCCOc5cc(C)c(Cl)c(C)c5)c5ccc(Cl)c(-c6c(C)nn(C)c6C)c54)C2=O)cn3C)o1 [Example 337, (R)-7-Chloro-10-(3-(4-chloro-3,5-dimethylphenoxy)propyl)-4-methyl-2-(1-methyl-5-(5-methyl-1,3,4-oxadiazol-2-yl)-1H-indol-3-yl)-6-(1,3,5-trimethyl-1H-pyrazol-4-yl)-3,4-dihydropyrazino[1,2-a]indol-1(2H)-one]	540	2.6	
CC[C@@H]1Cn2c(c(CCCOc3cc(C)c(Cl)c(C)c3)c3ccc(Cl)c(-c4c(C)nn(C)c4C)c32)C(=O)N1c1ccc(C(=O)O)c2ncccc12 [Example 19, (R)-5-(7-chloro-10-(3-(4-chloro-3,5-dimethylphenoxy)propyl)-3-ethyl-1-oxo-6-(1,3,5-trimethyl-1H-pyrazol-4-yl)-3,4-dihydropyrazino[1,2-a]indol-2(1H)-yl)quinoline-8-carboxylic acid]	4100	1.9	
Cc1cc(OCCCc2c3n(c4c(-c5c(C)ncnc5C)c(C)ccc24)[C@H](C)CN(c2cccc4cc(C(=O)O)n(Cc5ccccn5)c24)C3=O)cc(C)c1Cl (atropisomer, axis not shown) [Example 271, (R)-7-(10-(3-(4-chloro-3,5-dimethylphenoxy)propyl)-6-(4,6-dimethylpyrimidin-5-yl)-4,7-dimethyl-1-oxo-3,4-dihydropyrazino[1,2-a]indol-2(1H)-yl)-1-(pyridin-2-ylmethyl)-1H-indole-2-carboxylic acid]	260	< 1	
Cc1cc(OCCCc2c3n(c4c(-c5c(C)nn(C)c5C)c(Cl)ccc24)[C@H](C)CN(c2cn(C)c4ccc(C(=O)Nc5ccccc5)cc24)C3=O)cc(C)c1Cl [Example 285, 3-[(4R)-7-chloro-10-[3-(4-chloro-3,5-dimethyl-phenoxy)propyl]-4-methyl-1-oxo-6-(1,3,5-trimethylpyrazol-4-yl)-3,4-dihydropyrazino[1,2-a]indol-2-yl]-1-methyl-N-phenyl-indole-5-carboxamide]	5300	< 1	
Cc1cc(OCCCc2c3n(c4c(-c5c(C)nn(CCN(C)C)c5C)c(Cl)ccc24)[C@H](C)CN(c2cn(C)c4cc(C(=O)O)ccc24)C3=O)cc(C)c1Cl [Example 309, (R)-3-(7-chloro-10-(3-(4-chloro-3,5-dimethylphenoxy)propyl)-6-(1-(2-(dimethylamino)ethyl)-3,5-dimethyl-1H-pyrazol-4-yl)-4-methyl-1-oxo-3,4-dihydropyrazino[1,2-a]indol-2(1H)-yl)-1-methyl-1H-indole-6-carboxylic acid]	530	< 1	
Cc1cc(N2C[C@@H](C)n3c(c(CCCOc4cc(C)c(Cl)c(C)c4)c4ccc(Cl)c(-c5c(C)ncnc5C)c43)C2=O)c2c(c1)cc(C(=O)O)n2Cc1ccccn1 [Example 296, 7-[(4R)-7-chloro-10-[3-(4-chloro-3,5-dimethyl-phenoxy)propyl]-6-(4,6-dimethylpyrimidin-5-yl)-4-methyl-1-oxo-3,4-dihydropyrazino[1,2-a]indol-2-yl]-5-methyl-1-(2-pyridylmethyl)indole-2-carboxylic acid]	240	< 1	
Cc1cc(OCCCc2c3n(c4c(-c5c(C)nn(CC6CCN(C)CC6)c5C)c(Cl)ccc24)[C@H](C)CN(c2cccc4c(C(=O)O)cn(C)c24)C3=O)cc(C)c1Cl [Example 137, (R)-7-(7-chloro-10-(3-(4-chloro-3,5-dimethylphenoxy)propyl)-6-(3,5-dimethyl-1-((1-methylpiperidin-4-yl)methyl)-1H-pyrazol-4-yl)-4-methyl-1-oxo-3,4-dihydropyrazino[1,2-a]indol-2(1H)-yl)-1-methyl-1H-indole-3-carboxylic acid]	460	1.2	
COCCn1c(C(=O)O)cc2c(N3C[C@@H](C)n4c(c(CCCOc5cc(C)c(Cl)c(C)c5)c5ccc(Cl)c(-c6c(C)nn(C)c6C)c54)C3=O)cccc21 [Example 353, (R)-4-(7-Chloro-10-(3-(4-chloro-3,5-dimethylphenoxy)propyl)-4-methyl-1-oxo-6-(1,3,5-trimethyl-1H-pyrazol-4-yl)-3,4-dihydropyrazino[1,2-a]indol-2(1H)-yl)-1-(2-methoxyethyl)-1H-indole-2-carboxylic acid]	2900	2.1	
Cc1cc(OCCCc2c3n(c4c(-c5c(C)nn(C)c5C)c(Cl)ccc24)CCCN(c2cccc4c(C(=O)O)n(C)nc24)C3=O)cc(C)c1Cl [Example 16, 7-[8-Chloro-11-[3-(4-chloro-3,5-dimethyl-phenoxy)propyl]-1-oxo-7-(1,3,5-trimethylpyrazol-4-yl)-4,5-dihydro-3H-[1,4]diazepino[1,2-a]indol-2-yl]-2-methyl-indazole-3-carboxylic acid]	2900	< 1	
Cc1cc(OCCCc2c3n(c4c(-c5c(C)nn(C)c5C)c(Cl)ccc24)[C@H](C)CN(c2cn(C)c4c(-c5nnn(C)n5)cccc24)C3=O)cc(C)c1Cl [Example 362, (R)-7-Chloro-10-(3-(4-chloro-3,5-dimethylphenoxy)propyl)-4-methyl-2-(1-methyl-7-(2-methyl-2H-tetrazol-5-yl)-1H-indol-3-yl)-6-(1,3,5-trimethyl-1H-pyrazol-4-yl)-3,4-dihydropyrazino[1,2-a]indol-1(2H)-one]	970	1.7	
Cc1cc(N2C[C@@H](C)n3c(c(CCCOc4cc(C)c(Cl)c(C)c4)c4ccc(Cl)c(-c5c(C)nc(CN6CCOCC6)nc5C)c43)C2=O)c2c(c1)cc(C(=O)O)n2C [Example 416, (R)-7-(7-Chloro-10-(3-(4-chloro-3,5-dimethylphenoxy)propyl)-6-(4,6-dimethyl-2-(morpholinomethyl)pyrimidin-5-yl)-4-methyl-1-oxo-3,4-dihydropyrazino[1,2-a]indol-2(1H)-yl)-1,5-dimethyl-1H-indole-2-carboxylic acid]	< 200	< 1	
Cc1cc(OCCCc2c3n(c4c(-c5c(C)nn(C)c5C)c(Cl)ccc24)[C@H](C)CN(c2cccc4cc(C(=O)O)cnc24)C3=O)cc(C)c1Cl [Example 105, (R)-8-(7-Chloro-10-(3-(4-chloro-3,5-dimethylphenoxy)propyl)-4-methyl-1-oxo-6-(1,3,5-trimethyl-1H-pyrazol-4-yl)-3,4-dihydropyrazino[1,2-a]indol-2(1H)-yl)quinoline-3-carboxylic acid]	270	< 1	
Cc1cc(OCCCc2c3n(c4c(-c5c(C)nn(C)c5C)c(Cl)ccc24)[C@H](C)CN(c2cn(CCN4CCOCC4)c4cc(C(=O)O)ccc24)C3=O)cc(C)c1Cl [Example 293, (R)-3-(7-chloro-10-(3-(4-chloro-3,5-dimethylphenoxy)propyl)-4-methyl-1-oxo-6-(1,3,5-trimethyl-1H-pyrazol-4-yl)-3,4-dihydropyrazino[1,2-a]indol-2(1H)-yl)-1-(2-morpholinoethyl)-1H-indole-6-carboxylic acid]		< 1	810
Cc1cc(OCCCc2c3n(c4c(-c5c(C)nn(C)c5C)c(Cl)ccc24)[C@H](C)CN(c2cccc4c(C(=O)O)cn(Cc5ccccn5)c24)C3=O)cc(C)c1Cl [Example 468, (R)-7-(7-Chloro-10-(3-(4-chloro-3,5-dimethylphenoxy)propyl)-4-methyl-1-oxo-6-(1,3,5-trimethyl-1H-pyrazol-4-yl)-3,4-dihydropyrazino[1,2-a]indol-2(1H)-yl)-1-(pyridin-2-ylmethyl)-1H-indole-3-carboxylic acid]	260	< 1	

— patent US11596639B2, “Substituted indole Mcl-1 inhibitors” (Vanderbilt University, priority 2016, dated 2023)
